Numbers after ± are expanded uncertainties.
Conditions: Liquid, Closed cell (Static) method

SMILES | vapor or sublimation pressure (273.17 K) | vapor or sublimation pressure (278.17 K) | vapor or sublimation pressure (283.16 K) | vapor or sublimation pressure (288.16 K) | vapor or sublimation pressure (293.15 K) | vapor or sublimation pressure (298.15 K) | vapor or sublimation pressure (303.15 K) | vapor or sublimation pressure (308.15 K) | vapor or sublimation pressure (313.15 K) | vapor or sublimation pressure (318.15 K) | vapor or sublimation pressure (323.14 K) | vapor or sublimation pressure (328.14 K) | vapor or sublimation pressure (333.14 K) | vapor or sublimation pressure (338.14 K) | vapor or sublimation pressure (343.14 K) | vapor or sublimation pressure (348.13 K) | vapor or sublimation pressure (353.13 K) | vapor or sublimation pressure (323.15 K) | vapor or sublimation pressure (328.15 K) | vapor or sublimation pressure (333.15 K)
C=CC(F)(F)F [1,1,1-trifluoro-2-propene] | 268.8 ± 5 kPa | 318.4 ± 5 kPa | 373.6 ± 5.1 kPa | 437.6 ± 5.1 kPa | 510 ± 5.1 kPa | 590.1 ± 5.1 kPa | 678.2 ± 5.1 kPa | 776.7 ± 5.2 kPa | 883.6 ± 5.2 kPa | 1001.8 ± 5.3 kPa | 1130.4 ± 5.4 kPa | 1274.9 ± 5.5 kPa | 1431.6 ± 5.6 kPa | 1600.5 ± 5.7 kPa | 1785.7 ± 5.8 kPa | 1986.4 ± 6 kPa | 2203.1 ± 6.2 kPa | – | – | –
FCC(F)(F)F [1,1,1,2-tetrafluoroethane] | 294.3 ± 5 kPa | 351.2 ± 5.1 kPa | 415.4 ± 5.1 kPa | 488.2 ± 5.1 kPa | 570.6 ± 5.1 kPa | 664.8 ± 5.2 kPa | 769.2 ± 5.2 kPa | 886 ± 5.3 kPa | 1017.7 ± 5.3 kPa | 1158.1 ± 5.4 kPa | – | – | – | 1889.1 ± 6 kPa | 2118.1 ± 6.2 kPa | 2361.2 ± 6.4 kPa | 2634.6 ± 6.7 kPa | 1317.4 ± 5.5 kPa | 1489.6 ± 5.6 kPa | 1679.7 ± 5.8 kPa
